Measured values: the supplement of paper PMC10307832

Legend:
Assay in all cases: relative viability (nuclei count vs DMSO), 5 days (fraction); higher = more cells survive
NCI-H1650 = tested on: NCI-H1650
How it was run: (§1)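 Nuclei were stained with Hoechst during a one-step fixation (final 0.05% Triton X-100, 1% formaldehyde, 1 ug/ml Hoechst) carried out 5 days after dosing, then counted on 4× images. The cells, lung cancer lines in 1536-well plates, had been dosed by pin tool the day after seeding with one drug alone or a fixed anchor-drug dose plus five library-drug doses (not always all listed) in √10 steps. Relative viability is the nuclei count in treated wells divided by that in vehicle wells, and each value is the median of duplicate plates.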

ABC-1 = tested on: ABC-1
How it was run: as §1

UMC-11 = tested on: UMC-11
How it was run: as §1

LCLC-103H = tested on: LCLC-103H
How it was run: as §1

HCC-44 = tested on: HCC-44
How it was run: as §1

NCI-H520 = tested on: NCI-H520
How it was run: as §1

H3255 = tested on: H3255
How it was run: as §1

201T = tested on: 201T
How it was run: as §1

NCI-H358 = tested on: NCI-H358
How it was run: as §1

HCC-15 = tested on: HCC-15
How it was run: as §1

NCI-H1975 = tested on: NCI-H1975
How it was run: as §1

COR-L 105 = tested on: COR-L 105
How it was run: as §1

HCC-827 = tested on: HCC-827
How it was run: as §1

CCCCCCCCCCCC1=C(O)C(=O)C=C(O)C1=O [Embelin] + CCNC(=O)c1noc(-c2cc(C(C)C)c(O)cc2O)c1-c1ccc(CN2CCOCC2)cc1 [Luminespib] (partner 0.01 µM)
relative viability (NCI-H1650; first compound 2.53 µM): 0.212 | relative viability (NCI-H1650; first compound 8 µM): 0.185 | relative viability (ABC-1; first compound 0.08 µM): 0.546 | relative viability (ABC-1; first compound 0.8 µM): 0.841 | relative viability (ABC-1; first compound 2.53 µM): 0.913 | relative viability (ABC-1; first compound 8 µM): 0.825 | relative viability (UMC-11; first compound 0.08 µM): 1.1 | relative viability (UMC-11; first compound 0.8 µM): 1.15 | relative viability (UMC-11; first compound 2.53 µM): 1.27 | relative viability (UMC-11; first compound 8 µM): 1.22 | relative viability (LCLC-103H; first compound 0.08 µM): 1 | relative viability (LCLC-103H; first compound 0.8 µM): 1.03 | relative viability (LCLC-103H; first compound 2.53 µM): 1.14 | relative viability (LCLC-103H; first compound 8 µM): 0.926 | relative viability (HCC-44; first compound 0.08 µM): 1.04 | relative viability (HCC-44; first compound 0.8 µM): 1.1 | relative viability (HCC-44; first compound 2.53 µM): 1.37 | relative viability (HCC-44; first compound 8 µM): 0.852 | relative viability (NCI-H520; first compound 0.08 µM): 0.224 | relative viability (NCI-H520; first compound 0.8 µM): 0.29 | relative viability (NCI-H520; first compound 2.53 µM): 0.183 | relative viability (NCI-H520; first compound 8 µM): 0.235 | relative viability (H3255; first compound 0.08 µM): 0.848 | relative viability (H3255; first compound 0.8 µM): 0.954 | relative viability (H3255; first compound 2.53 µM): 0.935 | relative viability (H3255; first compound 8 µM): 0.965 | relative viability (201T; first compound 0.08 µM): 0.987 | relative viability (201T; first compound 0.8 µM): 1.08 | relative viability (201T; first compound 2.53 µM): 1.06 | relative viability (201T; first compound 8 µM): 1.09 | relative viability (NCI-H358; first compound 0.08 µM): 0.464 | relative viability (NCI-H358; first compound 0.8 µM): 0.447 | relative viability (NCI-H358; first compound 2.53 µM): 0.44 | relative viability (NCI-H358; first compound 8 µM): 0.306 | relative viability (HCC-15; first compound 0.08 µM): 0.243 | relative viability (HCC-15; first compound 0.8 µM): 0.299 | relative viability (HCC-15; first compound 2.53 µM): 0.3 | relative viability (HCC-15; first compound 8 µM): 0.302 | relative viability (NCI-H1975; first compound 0.08 µM): 0.296 | relative viability (NCI-H1975; first compound 0.8 µM): 0.282 | relative viability (NCI-H1975; first compound 2.53 µM): 0.293 | relative viability (NCI-H1975; first compound 8 µM): 0.2 | relative viability (COR-L 105; first compound 0.08 µM): 0.778 | relative viability (COR-L 105; first compound 0.8 µM): 0.894 | relative viability (COR-L 105; first compound 2.53 µM): 0.737 | relative viability (COR-L 105; first compound 8 µM): 0.624 | relative viability (HCC-827; first compound 0.08 µM): 0.857 | relative viability (HCC-827; first compound 0.8 µM): 0.885 | relative viability (HCC-827; first compound 2.53 µM): 0.864 | relative viability (HCC-827; first compound 8 µM): 0.657
